Measurements from PubChem BioAssay AID467 (The Scripps Research Institute Molecular Screening Center, 2006).
Activity calls are given as the source filed them. No rule for the calls is given here.

Test system: parental cell line counter screen, S1P1 agonist assay readout
Assay: signal in parental cells, counter-screen for S1P1 agonist project (AID 467);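 also: agonist potency measured against forskolin stimulation plus an EC20 level of SEW2871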

SMILES | EC50
COc1cccc(N2CCN(c3ncnc4c3[nH]c3ccccc34)CC2C)c1 (stereo not drawn) | 4.8 µM
COc1ccc(N2C(=O)CC(Sc3ncn[nH]3)C2=O)c(OC)c1 (stereo not drawn) | 4.91 µM
c1ccc2c(c1)oc1c(N3CCN(Cc4ccc5c(c4)OCO5)CC3)ncnc12 | 21.3 µM (inactive)
Cn1nc(C(C)(C)C)cc1C(=O)NCc1ccc(N2CCCC2=O)cc1 | > 30 µM (inactive)
CCCCOc1ncnc2c1[nH]c1ccccc12 | 37.9 µM (inactive)
COc1ccc(-n2nc3ccc(NS(C)(=O)=O)cc3n2)cc1Cl | > 95.1 µM (inactive)
COc1cccc2sc(Nc3nc(-c4ccccn4)cs3)nc12 | 8.08 µM
COc1ccc(-c2cc(C(=O)NC3CCCC3)no2)cc1OC | > 95.1 µM (inactive)
Cc1cc(N2CCN(c3nc4ccccc4s3)CC2)n2ncnc2n1 | > 95.1 µM (inactive)
CCOC(=O)c1ccc2nc(NC(=O)c3ccco3)sc2c1 | > 95.1 µM (inactive)
CC(C)[C@H](NC(=O)OC(C)(C)C)c1nnc(SCC(=O)Nc2ccc(Br)cc2)o1 | > 30 µM (inactive)
Cn1c(SCC(=O)Nc2ccc(N3CCOCC3)c(Cl)c2)nnc1-c1ccccc1 | > 95.1 µM (inactive)
CCN(CC)S(=O)(=O)c1cc(C(=O)Nc2ccncc2)ccc1Cl | > 95.1 µM (inactive)
COc1ccc(C(c2c(O)ccc3ccccc23)N2CCOCC2)c(OC)c1 (stereo not drawn) | 1.45 µM
Cc1cc(C(=O)CSc2nnc(-c3ccncc3)n2-c2ccccc2)c(C)n1C | > 95.1 µM (inactive)
CSc1ccc(S(=O)(=O)Nc2ccc3c(c2)OCCO3)cc1 | 67.2 µM (inactive)
Clc1ccc(CSc2nnc(-c3ccncc3)o2)cc1 | 86.9 µM (inactive)
O=C(Nc1ccc(OC(F)F)c(Cl)c1)Nc1ccc2c(c1)OCO2 | > 10 µM (inactive)
CCCOc1ccc(S(=O)(=O)NCc2ccc(OC)cc2)cc1 | > 30 µM (inactive)
CCOc1ccc(-c2nnc(-c3cccnc3)o2)cc1OCC | > 95.1 µM (inactive)
Cc1ccc(-c2nnc(SCc3ccccc3F)o2)cc1 | > 95.1 µM (inactive)
CCOc1ccc(Cc2nc(-c3nonc3N)no2)cc1OCC | > 95.1 µM (inactive)
Cc1cc(C(=O)CSc2nnc(-c3cccs3)o2)c(C)n1-c1ccccc1 | 19.2 µM (inactive)
Cc1ccccc1OCCCCc1c(C)n[nH]c1C | > 30 µM (inactive)
COc1ccc(-c2nc(-c3ccncc3)no2)cc1OC | > 95.1 µM (inactive)
c1ccc(CSc2nnc(-c3cccs3)o2)cc1 | > 95.1 µM (inactive)

SMILES | EC50
CC(C)Cc1cc(C(=O)Nc2sc3c(c2C#N)CCCC3)no1 | > 95.1 µM (inactive)
COc1ccc(/C(O)=C2/C(=O)C(=O)N(CC3CCCO3)C2c2cccc(OC)c2)cc1 (stereo not drawn) | > 95.1 µM (inactive)
CN(C)CC(C(=O)c1ccccc1)c1ccccc1 (stereo not drawn) | 3.58 µM
Clc1ccccc1C1=Nn2c(nnc2-c2ccncc2)SC1 | 13.9 µM (inactive)
CN1/C(=C/C(=O)c2nc(S(C)(=O)=O)ncc2Cl)C(C)(C)c2ccccc21 | 2.22 µM
Cc1cc(C(=O)CC#N)c(C)n1-c1ccc(OC(F)F)cc1 | > 95.1 µM (inactive)
Cc1ccc(NC(=O)c2cc(-c3ccco3)on2)cc1C | > 95.1 µM (inactive)
Cc1ccc2nc(NC(=O)CSc3nc4c(c(=O)n3C)SC(C)C4)sc2c1 (stereo not drawn) | > 95.1 µM (inactive)
CC1(C)CC(=O)C(C=Nc2ccc3[nH]ncc3c2)=C(O)C1 | > 30 µM (inactive)
COC(=O)c1ccc(OCC(O)Cn2nnc3ccccc32)cc1 (stereo not drawn) | > 95.1 µM (inactive)
CCOC(=O)c1c(C)[nH]c(C(=O)C(C)OC(=O)c2cccc(OCc3c(C)noc3C)c2)c1C (stereo not drawn) | 20.1 µM (inactive)
Oc1ccc(-c2nnc(-c3ccc(O)cc3)nn2)cc1 | > 95.1 µM (inactive)
Fc1ccc2[nH]c3c(N4CCSCC4)ncnc3c2c1 | 11 µM (inactive)
CCOc1ccc(-c2noc(-c3ccncc3)n2)cc1OCC | > 95.1 µM (inactive)
CCCC(=O)Nc1ccc(-c2nc3cc(C)ccc3o2)cc1 | > 95.1 µM (inactive)
Cc1ccc2[nH]c3c(N4CCN(Cc5ccc6c(c5)OCO6)CC4)ncnc3c2c1 | > 95.1 µM (inactive)
Cc1noc(/C=C/N(C)C)c1S(=O)(=O)N1CCN(c2ccccc2)CC1 | > 95.1 µM (inactive)
CC(=O)Nc1ccc(S(=O)(=O)N2CCN(c3cccc(C)c3C)CC2)cc1 | 36.5 µM (inactive)
O=C(c1cc(-c2ccccc2)on1)N1CCN(Cc2ccc3c(c2)OCO3)CC1 | > 30 µM (inactive)
O=C(CCN1CCc2ccccc2CC1)c1ccc2c(c1)OCCO2 | 4.84 µM
CCOc1ccc(C(=O)Nc2ccc(Cl)cn2)cc1Cl | > 95.1 µM (inactive)
COc1cccc(-c2csc(N3CCN(CC(=O)Nc4ccc5c(c4)OCO5)CC3)n2)c1 | > 30 µM (inactive)
CCCC(=O)Nc1ccc2oc(-c3ccc(OC)c(Br)c3)nc2c1 | > 95.1 µM (inactive)
CC1CC(C)(C)Nc2ccc(OC(=O)c3ccco3)cc21 (stereo not drawn) | 7.66 µM
CCOc1ccc(-c2nc(-c3ccc(OC)cc3)no2)cc1OCC | > 95.1 µM (inactive)
CCOc1ccc(-c2nnc(-c3ccco3)o2)cc1OCC | > 95.1 µM (inactive)

SMILES | EC50
O=C(Nc1ccc(N2CCOCC2)c(Cl)c1)c1cccc(F)c1 | > 95.1 µM (inactive)
CCSc1nnc(NC(=O)C(Cc2ccccc2)n2cccc2)s1 (stereo not drawn) | > 95.1 µM (inactive)
COc1ccc(C(=O)C(CN2CCOCC2)c2ccccc2)cc1F (stereo not drawn) | 8.06 µM
CCc1ccc(NC(=O)c2cc(-c3ccco3)on2)cc1 | > 95.1 µM (inactive)
Cn1c(C(=O)N2CCCc3ccccc32)cc2sccc21 | > 95.1 µM (inactive)
O=C(OC1CCCCC1)c1ccc(NC(=O)c2ccco2)cc1 | > 30 µM (inactive)
CCCc1cc(C(=O)Nc2sc(C)c(CC)c2C#N)no1 | > 95.1 µM (inactive)
CC(C)COC(=O)NCCOC(=O)Nc1cccc(Cl)c1 | 27.7 µM (inactive)
Cc1nc2ccc3nc(NC(=O)C4COc5ccccc5O4)sc3c2s1 (stereo not drawn) | > 95.1 µM (inactive)
Cc1nn(C(=O)c2cccs2)c(N)c1-c1ccccc1 | > 30 µM (inactive)
COc1ccc(OCCCSc2ncccn2)cc1 | > 95.1 µM (inactive)
CCc1ccc(-c2nc(CSCC(=O)N3CCN(c4ccccn4)CC3)c(C)o2)cc1 | 18.7 µM (inactive)
CCCCOc1ccc(S(=O)(=O)Nc2cccnc2)cc1 | > 95.1 µM (inactive)
CC1Cc2cc(-c3csc(NC(=O)Cc4cccs4)n3)ccc2N1S(C)(=O)=O (stereo not drawn) | 23.8 µM (inactive)
Cc1cc(NC(=O)c2oc3ccccc3c2C)ccc1-n1cnnn1 | > 30 µM (inactive)
Cc1cccc(NC(=O)Nc2ccc(C#N)cc2)n1 | 43 µM (inactive)
CCCc1ccc(Oc2cn[nH]c2-c2ccc(O)c(C)c2O)cc1 | > 10 µM (inactive)
COc1ccc(CCNc2ncnc3c2oc2ccccc23)cc1OC | 5.31 µM
COCCn1c(C)cc(C(=O)CSc2nnc(-c3cccnc3)n2-c2ccccc2F)c1C | > 95.1 µM (inactive)
CC1CCN(S(=O)(=O)c2ccc3c(c2)oc(=O)n3CC(=O)NCc2ccc3c(c2)OCO3)CC1 | > 30 µM (inactive)
Cc1csc(NC(=O)c2nc(-c3ccccc3)n(-c3ccccc3)n2)n1 | > 95.1 µM (inactive)
O=C(C1CCC1)N1CCc2cc(S(=O)(=O)Nc3ccc4c(c3)OCCO4)ccc21 | > 95.1 µM (inactive)
CCC(=NCc1ccc2c(c1)OCO2)c1c(O)n(C2CCCCC2)c(=O)[nH]c1=O | 26.6 µM (inactive)
CC(C)Cc1cc(C(=O)Nc2cc(Br)ccc2O)no1 | > 10 µM (inactive)
Cn1nc(CC(=O)Nc2ccc(N3CCN(C(=O)OC(C)(C)C)CC3)cc2)c2ccccc2c1=O | > 95.1 µM (inactive)
O=C(Nc1ccccc1C(F)(F)F)c1cc(-c2ccc(O)cc2)on1 | > 95.1 µM (inactive)

SMILES | EC50
COC(=O)c1sc(NC(=O)c2ccc(OC)cc2OC)nc1C | > 95.1 µM (inactive)
CCOC(=O)C1CCN(c2ncnc3c2oc2ccc(Cl)cc23)CC1 | > 95.1 µM (inactive)
O=C(Nc1ccc(Oc2ccccc2)cc1)c1cnc2n(c1=O)CCS2 | > 95.1 µM (inactive)
CC(C)c1cc(C(=O)N2CCN(C(c3ccccc3)c3ccccc3)CC2)no1 | > 95.1 µM (inactive)
COc1ccc2c(c1)CCc1c(C(=O)Nc3ccc(OC)c(OC)c3)noc1-2 | > 95.1 µM (inactive)
CC(C)c1ccc2oc(-c3ccc(N)cc3)nc2c1 | > 30 µM (inactive)
Cc1cccc(-c2nc(CSCC(=O)N3CCN(c4ccccn4)CC3)c(C)o2)c1 | 31 µM (inactive)
O=c1oc2cc(Br)ccc2n1CSC1=NCCS1 | > 10 µM (inactive)
Cc1occc1C(=O)N1CCN(c2ccc(Cl)c(Cl)c2)CC1 | 43.9 µM (inactive)
Cc1ccc2c(c1)N(CC(=O)Nc1ccc3c(c1)OCCO3)C(=O)CO2 | > 95.1 µM (inactive)
C=CCOC(=O)c1[nH]c2c(c1C)C(=O)CC(c1cc(OC)c(OC)c(OC)c1)C2 (stereo not drawn) | > 95.1 µM (inactive)
CCCOC(=O)c1[nH]c2c(c1C)C(=O)CC(c1cc(OC)c(OC)c(OC)c1)C2 (stereo not drawn) | 35.5 µM (inactive)
CCC(C)c1ccc2oc(-c3ccc(NC(=O)c4ncn[nH]4)cc3)nc2c1 (stereo not drawn) | > 95.1 µM (inactive)
O=S1(=O)C=C(Sc2nc3ccccc3s2)c2ccccc21 | 1.26 µM
CCCc1cc(C(=O)N2CCN(C(c3ccccc3)c3ccccc3)CC2)no1 | > 95.1 µM (inactive)
COc1cc(C(=O)N2CCN(S(=O)(=O)c3ccc(C)cc3)CC2)ccc1OCc1c(C)noc1C | > 95.1 µM (inactive)
CCOC(=O)N1CCN(C(=O)C2CCN(c3ncnc4c3sc3cccc(F)c34)CC2)CC1 | 24.2 µM (inactive)
Cc1cc(C(=O)N2CCN(C(c3ccccc3)c3ccccc3)CC2)no1 | > 95.1 µM (inactive)
CCCS(=O)(=O)c1nnnn1-c1cccc(OC)c1 | 0.988 µM
Cc1cc(C(=O)CSc2nnnn2C)c(C)n1-c1cccc(F)c1 | > 95.1 µM (inactive)
CC(C)OCCCNc1ncnc2c1[nH]c1ccc(F)cc12 | 24.4 µM (inactive)
C/C(N)=C(/C#N)C(=O)CSc1nc2cc(Cl)ccc2s1 | 49.5 µM (inactive)
Clc1ccc(CSc2nnc(-c3ccncc3)o2)c(Cl)c1 | > 95.1 µM (inactive)
Nc1nonc1C(=O)NCCNCc1cc(Br)ccc1OCc1ccccc1F | 28.9 µM (inactive)
c1ccc(CNc2ncnc3ccccc23)cc1 | 30.1 µM (inactive)
